From patent US9303069B2, “Peptides for treating cancer” (University of Mississippi Medical Center, priority 2014, dated 2016) come the findings set out here.

Experiment [1] concerns HOSE and HOSE/IRIS cells. The experiment can be described thus: Survival of HOSE versus HOSE/IRIS cells. The experiment is classed as cell-based, human. To be noted: pre-treatment with 5 μM of IRIS peptide. Here is the method: To test that, HOSE or HOSE/IRIS cells were incubated for 24 hours with 10 μM of ErbB2 (CP-724714), EGFR (Erlotinib), TrkB (K252a), JNK (SP600125), p38 (SB203580), ERK (PD98059) and PI3′K/AKT (LY294002) inhibitors. […] Taken together, BRCA1-IRIS overexpression activates AKT and ERK, thereby inactivating FOXO3a and promoting Cyclin D1, survivin, Bcl-2 and NF-κB expression and suppressing p27 expression (FIG. 15).
HOSE cells overexpressing IRIS show a higher degree of resistance to cisplatin than HOSE cells (compare blue to black line in FIG. 30).
Cell viability measurement. Cell viability under different experimental conditions was determined using the MTS assay […]. Briefly, SKOV3, OVACAR3, HOSE and HOSE/IRIS cells (2.5×10^4 cells per well) were seeded in 96 well plates and incubated overnight at 37° C. in 10% humidified CO2 atmosphere in varying concentrations of IRIS peptide, or inhibitors of ErbB2 (CP-724714), EGFR (Erlotinib), TrkB (K252a), JNK (SP600125), p38 (SB203580), ERK (PD98059) and PI3′K/AKT (LY294002) inhibitors for 24 hours at 37° C. Cell Titer 96® Aqueous (Promega, Madison, Wis., USA) was used to measure viability following manufactures instructions. Cell viability (%) was expressed as a ratio to control cells×100. Growth inhibition was also determined by manually counting cells in five different microscopic fields. Change in cell numbers (fold) was expressed as a ratio to control cells×100. All experiments were done in at least triplicates, three different times. * is p≦0.05, ** is p≦0.001 and *** is p≦0.0001.

Experiment [2] deals with BRCA1-IRIS. Kind of experiment: BRCA1-IRIS expression in ovarian cells (Western analysis). The experiment is classed as cell-based, human. Particulars: all ovarian cell lines; 10 μM of IRIS peptide for 24 hours. An excerpt:
At these low concentrations of cisplatin BRCA1-IRIS expression was induced in HOSE cells and remained high in HOSE/IRIS cells (FIG. 17). […] Cell lines expressing the lowest levels of BRCA1-IRIS (i.e.

The subject of experiment [3] is SKOV3 cells. Kind of experiment: Invasion assay, matrigel-coated Boyden chambers, SKOV3. In kind it is cell-based, human. Particulars: 72 hours, IRIS peptide 5 μM, versus control-treated cells. Here is the method: Invasion assay: Control (transfected with siLuc or treated with scrambled peptide, 5 μM) or shIRIS expressing SKOV3 cells were layered on top of matrigel-coated Boyden chambers. Some cultures were treated with 5 μM IRIS peptide. Seventy-two hours later, cells that invaded the matrigel and migrated to the lower side of the chambers were stained with Crystal Violet, counted and photographed. […] Similarly, BRCA1-IRIS silenced cells also lost their invasion ability by ˜75 fold (compare C to A in FIG. 36 and FIG. 35).
Cell Invasion assay. Growth reduced BD Matrigel™ invasion chamber (24 well plate, 8.0 μm, BD BioCoat™) was used to study the invasion ability of control and shBRCA1-IRIS cells. Cells (5×10^3) in complete medium (500 μl) were seeded on the upper compartment, and the lower compartment was filled with 750 μl of complete growth medium. Cells were incubated for 72 hours. The medium from the upper chamber was removed, and the cells on the upper surface of the membrane were removed carefully with a cotton swab. Invasive cells in lower side of the membrane were stained with crystal violet dye for 10 minutes. After staining, the upper chamber was rinse thoroughly with water until the water runs clear. Stained and dry chambers were visualized with microscope and photographed.

Experiment [4] deals with caspase 3/7. Kind of experiment: Cleaved / activated caspase 3/7 in MDA-MB-231 and MDA-MB-468 cells. The experiment is classed as cell-based, human. Particulars: increasing concentrations of IRIS peptide. Here is the method: To assess whether BRCA1-IRIS inactivation can sensitize TNBC cells to lower paclitaxel concentrations, MDA-MB-231 and MDA-MB-468 were exposed to 1 μM of paclitaxel 0, 1, 2, 5 and 10 μM of IRIS peptide for 24 hours. […] Perhaps more importantly, in the presence of only 1 μM of paclitaxel, the IC50 of IRIS peptide was reduced to <2 μM in both cell lines (dark color lines in FIG. 85).

Experiment [5] has as its system MDA-MB-231 and MDA-MB-468 cells. Kind of experiment: Invasion assay, matrigel coated Boyden chambers, TNBC cells. In kind it is cell-based, human. Particulars: peptide added every 3rd day. An excerpt: To study invasion in vitro, matrigel coated Boyden chambers were layered with MDA-MB-231 or MDA-MB-468 cells expressing shcontrol of shIRIS expressing cells, also parental cells were layered and grown in the presence of scrambled or IRIS peptide (added every 3rd day). To migrate to the lower side of the chamber or the bottom well, cells must first digest the matrigel. Four days later, a significant number of control treated cells invaded the matrigel and migrated to the lower side of the chambers (FIG. 95, 1st column and FIG. 96) and the bottom well (FIG. 97 and FIG. 98, 1st column) in both cell lines. […] Quantitatively, BRCA1-IRIS silencing or inactivation reduced the invasive/migratory ability of these TNBC cells by ˜100 fold (FIG. 96 and FIG. 97).
Cell Invasion assay. Growth reduced BD Matrigel™ invasion chamber (24 well plate, 8.0 μm, BD BioCoat™) was used to study the invasion ability of control shRNA and BRCA1-IRIS shRNA expressing MDAMB231 cells. Cells (5×10^3) in complete medium (500 μl) were seeded on the upper compartment, and the lower compartment was filled with 750 μl of complete growth medium. […] Cells invaded into the lower side of the membrane as well as those migrate to the bottom well were stained with Crystal Violet, visualized under microscope, photographed and counted. […]

Experiment [6] relates to HME cells. Particulars: 48 h.
Protocol: (§1) All cell lines were exposed to increasing concentrations of paclitaxel and BRCA1-IRIS expression, and cells' viability was then measured.
Cell viability measurement. Cell viability under different experimental conditions was determined using the MTS assay. Briefly, cells (2.5×10^4 cells per well) were seeded in 96-well plates and incubated overnight at 37° C. in 10% humidified CO2 atmosphere. The next day they were incubated with varying concentration of peptide, or inhibitors for 24 hours at 37° C. Cell viability was determined using cell Titer 96® Aqueous (Promega, Madison, Wis., USA) following manufacturer's instructions. Cell viability (%) was expressed as a ratio of treated cells to control cells×100. […] Each experiment was done in triplicate, repeated three separate times.
Experiment [7] has as its system MDA-MB-468 cells. Particulars: 48 h.
Protocol: as §1
Stable clones were then exposed to 0, 10 or 20 μM of EGFR (Erlotinib), ErbB2 (CP-724714), PI3′K/AKT (LY294002), p38 (SB203580), ERK (PD98059) or JNK (SP600125) inhibitors for 24 hours.
First, to assess the effect of this IRIS peptide, equal numbers of HME, HME/IRIS, MDA-MB-231, MDA-MB-468 and BT549 cells were exposed to increasing concentrations of scrambled or IRIS peptide for 48 hours.
Cell viability under different experimental conditions was determined using the MTS assay. Briefly, cells (2.5×10^4 cells per well) were seeded in 96-well plates and incubated overnight at 37° C. in 10% humidified CO2 atmosphere. The next day they were incubated with varying concentration of peptide, or inhibitors for 24 hours at 37° C. Cell viability was determined using cell Titer 96® Aqueous (Promega, Madison, Wis., USA) following manufacturer's instructions. Cell viability (%) was expressed as a ratio of treated cells to control cells×100. Growth inhibition was also determined by manually counting cells in five different microscopic fields. Change in cell numbers (fold) was expressed as a ratio of the means of these recording of treated cells compared to control cells×100. Each experiment was done in triplicate, repeated three separate times.

Entries after “also recorded” stand apart in the source; their conditions may differ. Ends that are not written are not given here.

The term IC50 denotes the concentration needed to halve the response being measured. In the case of “RRIRPRPPRLPRPRPRPLPFPRPGIGTRFLCLPQSIYRSELNVYAFGEHILQISKYS [IRIS peptide]”, in experiment [1], the effect on survival result is “decreased survival of HOSE and HOSE/IRIS cells”. Besides, in experiment [1] (then cisplatin), the sensitization to cisplatin entry is “sensitized HOSE and HOSE/IRIS cells to low concentrations of cisplatin”. In addition, the BRCA1-IRIS expression result in experiment [2] is on record as “significant reduction in BRCA1-IRIS expression”. Besides, in experiment [3], the “decreased ability to invade” value is about 100 fold. For the same sequence, the “cleaved / activated caspase 3/7” value in experiment [4] is “gradual increase in activated caspase 3/7; also recorded: increase cleaved caspase 3/7 in both cell lines”. Also, the “reduction of invasive/migratory ability” value in experiment [5] was about 100 fold. Besides, the IC50 in experiment [6] was about 0.5 µM; in experiment [7], about 5 µM.
